The values that follow come from paper PMC7865145, “Identification of existing pharmaceuticals and herbal medicines as inhibitors of SARS-CoV-2 infection” (Proceedings of the National Academy of Sciences of the …, 2021).

Molecules are shown by their SMILES. Read-outs that look alike come from different tables or passages of the source.

One data set relates to Vero E6 cells. The experiment in a line: Cytotoxicity study of compounds with Vero E6 cells (CCK-8).
In data set [1] the test system is SARS-CoV-2 (hCoV-19/Taiwan/4/2020). Put plainly: microbe, parasite or virus in culture. The data set is classed as cell-based.
For data set [2], the target named is Papain-like protease (nsp3) of SARS-CoV-2 (Severe acute respiratory syndrome coronavirus 2, UniProt P0DTD1). Put plainly: biochemical. The data set is classed as biochemical. As to conditions: for Inhibition % at 100 uM of compounds, Papain-like protease (nsp3): FRET-based enzymatic assay, 3 independent experiments, N.I. = no inhibition.
For data set [3], the system named is SARS-CoV-2. Put plainly: Quantification of SARS-CoV-2 via antibody staining (viral NP protein) in Vero E6 cells. The data set is classed as cell-based. As to conditions: for IC50: viral titer by antinucleocapsid antibody.
A further data set can be described thus: in vitro. As to conditions: African green monkey, CC50 (μM), Vero E6 cells.
Data set [4] has as its system SARS-CoV-2. The experiment in a line: In vivo anti-SARS-CoV-2 assay, lung virus load. As to conditions: female golden Syrian hamsters, intranasal infection day 0, oral twice a day 30 mg/kg/d for 3 d, n = 5.
The conditions of data set [5]: hamster, in vivo.
Data set [6] addresses nsp7-nsp8-nsp12 complex (Rdrp) of SARS-CoV-2 (Severe acute respiratory syndrome coronavirus 2, UniProt P0DTD1). The experiment in a line: Activity assay for SARS-CoV-2 RNA-dependent RNA polymerase. It counts as biochemical.
The mark [7] stands for this setting: Severe acute respiratory syndrome coronavirus 2, Vero C1008, 72 h, read-out: CPE (μM) D3.
Where [8] appears, read: Severe acute respiratory syndrome coronavirus 2, Vero C1008, 100 PFU of SARS-CoV-2 (multiplicity of infection 0.025) in Vero E6 cells.
[9] abbreviates: Severe acute respiratory syndrome coronavirus 2, Vero C1008, 120 h, […], N.I. = no inhibition, dash = cytotoxicity was observed, read-out: CPE (μM) D5.
Setting [10] is: 100 PFU of SARS-CoV-2 (multiplicity of infection 0.025) in Vero E6 cells.

The term IC50 denotes the midpoint of a concentration-inhibition curve. A higher IC50 goes with lower potency. What is called CC50 is the concentration giving 50% cytotoxicity. For `CC[C@H](C)[C@H]1O[C@]2(CC[C@@H]1C)C[C@@H]1C[C@@H](C/C=C(\C)[C@@H](O[C@H]3C[C@H](OC)[C@@H](O[C@H]4C[C@H](OC)[C@@H](O)[C@H](C)O4)[C@H](C)O3)[C@@H](C)/C=C/C=C3\CO[C@@H]4[C@H](O)C(C)=C[C@@H](C(=O)O1)[C@]34O)O2` [Ivermectin 6, Ivermectin], the “cytotoxicity in the cell-based assay” value in the data set on Vero E6 cells (Vero E6) was “high cytotoxicity”. For the same molecule, the minimal effective concentration in data set [1] (setting [7]) came out at 2.5 µM. Also, the “Inhibition % at 100 uM of compounds, Papain-like protease (nsp3)” value in data set [2] was “N.I”. In addition, in the data set on SARS-CoV-2 [3] (setting [8]), half-maximal inhibition (IC50) required 4.1 µM. The CC50 in the data set “in vitro” was 13.2 µM.

As to `CC[C@@]1([C@@H]2O[C@@H]([C@H]3O[C@@](O)(CO)[C@H](C)C[C@@H]3C)C[C@@H]2C)CC[C@H]([C@]2(C)CC[C@]3(C[C@H](O)[C@@H](C)[C@@H]([C@@H](C)[C@@H](OC)[C@H](C)C(=O)O)O3)O2)O1` [Monensin 14, Monensin], the half-maximal cytotoxic concentration (CC50) in the data set with Vero E6 cells (Vero E6 cells) was 6.6 µM; in “in vitro” it was 6.66 µM. Moreover, the minimal effective concentration in data set [1] (setting [7]) turned out to be 0.117 µM; in data set [1] (setting [9]), 2.5 µM. For the same molecule, in data set [2], the “Inhibition % at 100 uM of compounds, Papain-like protease (nsp3)” value was “N.I”. For the same molecule, the results for the IC50 in the data set on SARS-CoV-2 [3] (setting [10]) and with SARS-CoV-2 [3] (setting [8]) were 6.4 µM and 6.38 µM, respectively. The “selectivity index (antiviral effect vs cytotoxicity)” value with SARS-CoV-2 [3] (Vero E6, CC50 vs IC50) is “no selectivity”.

For orientation: inhibition means the share of the control response that was lost under treatment. Take `CC[C@@H](C(=O)[C@@H](C)[C@@H](O)[C@H](C)[C@@H]1O[C@@H]([C@@H](CC)C(=O)O)CC[C@@H]1C)[C@H]1O[C@]2(C=C[C@@H](O)[C@]3(CC[C@@](C)([C@H]4CC[C@](O)(CC)[C@H](C)O4)O3)O2)[C@H](C)C[C@@H]1C` [Salinomycin 13, Salinomycin]: the “lung virus load vs control (drugs)” value in the data set on SARS-CoV-2 [4] was “no significant antiinfective effect”. For the same molecule, the “body-weight change after 3-d treatment” value in data set [5] is “higher weight loss than the control group”. Further, the minimal effective concentration was found to be 0.039 µM in data set [1] (setting [7]) and 0.156 µM in data set [1] (setting [9]). Moreover, the inhibition at 100 µM in data set [2] (read-out: Inhibition % at 100 uM of compounds, Papain-like protease (nsp3)) stood at 9.4%. In addition, the IC50 turned out to be 0.00048 µM in the data set with SARS-CoV-2 [3] (setting [10]) and 0.000479 µM in the data set on SARS-CoV-2 [3] (setting [8]). Moreover, in the data set with SARS-CoV-2 [3] (African green monkey, Vero E6, CC50 vs IC50, read-out: selectivity index (antiviral effect vs cytotoxicity)), the selectivity ratio is > 100. For the same molecule, in “in vitro”, the half-maximal cytotoxic concentration (CC50) amounted to 13.1 µM.

Take `Nc1nc(=S)c2ncn([C@@H]3O[C@H](COP(=O)(O)OP(=O)(O)OP(=O)(O)O)[C@@H](O)[C@H]3O)c2[nH]1` [TGTP, thioguanosine triphosphate]: the “inhibition against Rdrp in vitro” value in data set [6] is recorded as “no inhibition”.
